Assay results reported in patent publication US10752612B2, “PLK4 inhibitors” (LUDWIG INSTITUTE FOR CANCER RESEARCH LTD, priority 2015, dated 2020).

Molecular target: T1, human Plk4 kinase domain (aa 2-275) (Homo sapiens, UniProt O00444)
T1 construct: purified 6×His-tagged human Plk4 kinase domain (aa 2-275); 6xHis; made in house; host or cells: E. coli
T1 sequence (O00444 2-275): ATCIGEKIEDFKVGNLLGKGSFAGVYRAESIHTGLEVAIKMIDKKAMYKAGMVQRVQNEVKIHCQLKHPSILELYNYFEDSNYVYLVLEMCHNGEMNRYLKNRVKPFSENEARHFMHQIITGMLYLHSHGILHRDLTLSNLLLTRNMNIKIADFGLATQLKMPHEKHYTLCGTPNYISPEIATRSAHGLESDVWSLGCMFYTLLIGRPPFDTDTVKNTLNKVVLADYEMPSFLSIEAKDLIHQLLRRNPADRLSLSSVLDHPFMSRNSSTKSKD
Assay: Plk4 kinase assay (ADP-Glo)
Type: biochemical
Details: Table 1
Procedure: Kinase assays. […] The Plk4 concentration in the final reaction was 2.5-10 nM with a final pH of 8.0. […] Reactions were allowed to proceed for 4-16 hours at 25° C. Detection was performed using ADP-Glo reagent (Promega), following manufacturer's instructions. Luminescence was measured on an Infinite M1000 plate reader (Tecan). Data were fit using Prism (GraphPad) and Kis were calculated from IC50 data using the Cheng and Prusoff equation (37) or the Copeland formalism for tight-binding inhibitors (38).

SMILES	IC50 [nM]
CCc1c(Nc2cc(C)[nH]n2)nc(Sc2ccc(NC(=O)C3CC3)cc2)nc1N1CCN(C)CC1	> 1000
CCNc1nc(Sc2ccc(NC(=O)C3CC3)cc2)nc(Nc2cc(C)[nH]n2)c1C	< 1000
CCCC(=O)Nc1ccc(Sc2nc(Nc3cc(C)[nH]n3)c(C)c(N3CCN(C)CC3)n2)cc1	< 1000
Cc1cc(Nc2nc(Sc3ccc(NC(=O)C4CC4)cc3)nc(NC(C)C)c2C)n[nH]1	< 1000
CCN(C)c1nc(Sc2ccc(NC(C)=O)cc2)nc(Nc2cc(C)[nH]n2)c1C	< 1000
CC(=O)Nc1ccc(Sc2nc(Nc3cc(C)[nH]n3)c(C)c(N(C)C)n2)cc1	< 1000
CC(=O)Nc1ccc(Sc2nc(Nc3cc(C)[nH]n3)c(C)c(N3CCCCC3)n2)cc1	< 1000
COc1c(Nc2cc(C)[nH]n2)nc(Sc2ccc(NC(=O)C3CC3)cc2)nc1N1CCN(C(C)(C)C)CC1	> 1000
COCCN(C)c1nc(Sc2ccc(NC(C)=O)cc2)nc(Nc2cc(C)[nH]n2)c1C	< 1000
COCCNc1nc(Sc2ccc(NC(C)=O)cc2)nc(Nc2cc(C)[nH]n2)c1C	< 1000
COc1c(Nc2cc(C)[nH]n2)nc(Sc2ccc(NC(C)=O)cc2)nc1NC1CCNCC1	< 1000
CCc1cc(Nc2nc(SC)nc(N3CCN(CCN(C)C)CC3)c2OC)n[nH]1	< 1000
CCc1cc(Nc2nc(SC)nc(N3CCN(CCN(C)C)CC3)c2C)n[nH]1	< 1000
COc1c(Nc2cc(C)[nH]n2)nc(Sc2ccc(NC(C)=O)nc2)nc1N1CCOCC1	< 1000
COc1c(Nc2cc(C)[nH]n2)nc(Sc2ccc(S(=O)(=O)C(C)(C)c3cccc([N+](=O)[O-])c3F)cc2F)nc1N1CCN(C(C)=O)CC1	< 1000
COc1c(Nc2cc(C)[nH]n2)nc(Sc2ccc(S(=O)(=O)Cc3cccc([N+](=O)[O-])c3F)cc2F)nc1N1CCC(NC(C)=O)CC1	< 1000
COc1c(Nc2cc(C)[nH]n2)nc(Sc2ccc(S(=O)(=O)C3(c4cccc([N+](=O)[O-])c4F)CC3)cc2F)nc1N1CCC(CN(C)C)CC1	< 1000
COc1c(Nc2cc(C)[nH]n2)nc(Sc2ccc(S(=O)(=O)C3(c4cccc([N+](=O)[O-])c4F)CC3)cc2F)nc1N1CCC(C(N)=O)CC1	< 1000
COc1c(Nc2cc(C)[nH]n2)nc(Sc2ccc(S(=O)(=O)C(C)(C)c3c(F)c(F)cc(F)c3F)cc2F)nc1N1CCC(N)CC1	< 1000

SMILES	IC50 [nM]
COc1c(Nc2cc(C)[nH]n2)nc(Sc2ccc(S(=O)(=O)Cc3cccc([N+](=O)[O-])c3F)cc2F)nc1N1CCC(CC(N)=O)CC1	< 1000
COc1c(Nc2cc(C)[nH]n2)nc(Sc2ccc(S(=O)(=O)C3(c4cccc([N+](=O)[O-])c4F)CC3)cc2F)nc1N1CCC(CN)CC1	< 1000
COc1c(Nc2cc(C)[nH]n2)nc(Sc2ccc(S(=O)(=O)C(C)(C)c3cccc([N+](=O)[O-])c3F)cc2F)nc1N1CCN(CCNC(=O)C(F)(F)F)CC1	< 1000
COc1c(Nc2cc(C)[nH]n2)nc(Sc2cccc(NC(C)=O)c2)nc1N1CCN(CCN(C)C)CC1	< 1000
COc1c(Nc2cc(C)[nH]n2)nc(Sc2cccc(NC(C)=O)c2)nc1N1CCOCC1	< 1000
COc1c(Nc2cc(C)[nH]n2)nc(Sc2ccc(NC(C)=O)cc2)nc1N1CCN(CC(=O)N2CCOCC2)CC1	< 1000
COc1c(Nc2cc(C)[nH]n2)nc(Sc2ccc(NC(C)=O)cc2)nc1N1CCN(CC(=O)N2CCCCC2)CC1	< 1000
Cc1cc(Nc2nc(Sc3ccc([N+](=O)[O-])cc3)nc3c2CCC32CCN(C(=O)C(C)(C)C)CC2)n[nH]1	< 1000
Cc1cc(Nc2nc(Sc3ccc([N+](=O)[O-])cc3)nc3c2CCC32CCNCC2)n[nH]1	< 1000
CC(=O)Nc1ccc(Sc2nc(Nc3cc(C)[nH]n3)c3c(n2)C2(CC3)CCN(C(=O)C(C)(C)C)CC2)cc1	< 1000
COc1c(Nc2cc(C)[nH]n2)nc(Sc2ccc([N+](=O)[O-])cc2)nc1N1CCN(CCN(C)C)CC1	< 1000
COc1c(Nc2cc(C)[nH]n2)nc(Sc2ccc(NC(C)=O)cc2)nc1C1=CCNCC1	< 1000
COc1c(Nc2cc(C)[nH]n2)nc(Sc2ccc(NC(C)=O)cc2)nc1N1CCN(CCN(C)C)C(C)C1 (centres unmarked)	< 1000
COc1c(Nc2cc(C)[nH]n2)nc(Sc2ccc(NC(C)=O)cc2)nc1C1=CCN(CC(=O)N(C)C)CC1	< 1000
COc1c(Nc2cc(C)[nH]n2)nc(Sc2ccc(NC(C)=O)cc2)nc1C1=CCN(CCN(C)C)CC1	< 1000
CC(=O)Nc1ccc(Sc2nc(Nc3cc(C)[nH]n3)cc(N3CCN(CCN(C)C)CC3C)n2)cc1 (centres unmarked)	< 1000
COc1c(Nc2cc(C)[nH]n2)nc(Sc2ccc(NC(C)=O)cc2)nc1C1=CCN(C)CC1	< 1000
CC(=O)Nc1ccc(Sc2nc(Nc3cc(C)[nH]n3)c3c(n2)C2(CC3)CCN(CCN(C)C)CC2)cc1	< 1000
Cc1cc(Nc2nc(Sc3ccc([N+](=O)[O-])cc3)nc3c2CCC32CCN(CCN(C)C)CC2)n[nH]1	< 1000
